In series [1] the target is T1, Tyrosine-protein phosphatase non-receptor type 11 (Homo sapiens) (UniProt Q06124).
T1 sequence (whole entry): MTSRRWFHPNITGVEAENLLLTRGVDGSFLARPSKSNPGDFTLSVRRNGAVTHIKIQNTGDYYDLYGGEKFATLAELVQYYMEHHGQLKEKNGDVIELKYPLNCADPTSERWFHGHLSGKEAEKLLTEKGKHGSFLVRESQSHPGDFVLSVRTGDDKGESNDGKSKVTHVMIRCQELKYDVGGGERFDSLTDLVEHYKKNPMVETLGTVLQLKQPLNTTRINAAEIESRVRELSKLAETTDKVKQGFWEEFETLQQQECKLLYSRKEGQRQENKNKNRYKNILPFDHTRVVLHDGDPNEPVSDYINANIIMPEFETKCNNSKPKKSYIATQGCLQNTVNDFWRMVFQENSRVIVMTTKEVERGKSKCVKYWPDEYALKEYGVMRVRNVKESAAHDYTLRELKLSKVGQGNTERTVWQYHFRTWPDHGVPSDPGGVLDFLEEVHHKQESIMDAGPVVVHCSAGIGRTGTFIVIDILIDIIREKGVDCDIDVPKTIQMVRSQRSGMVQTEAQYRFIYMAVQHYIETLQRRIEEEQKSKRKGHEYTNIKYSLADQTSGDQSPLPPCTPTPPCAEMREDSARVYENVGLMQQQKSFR
In words: Inhibition of SHP2 (unknown origin).

The target in series [2] is Tyrosine-protein kinase JAK2 (Homo sapiens) (UniProt O60674). Description: Inhibition of JAK2 (unknown origin).
Sequence of Tyrosine-protein kinase JAK2 (Homo sapiens) (O60674 whole entry): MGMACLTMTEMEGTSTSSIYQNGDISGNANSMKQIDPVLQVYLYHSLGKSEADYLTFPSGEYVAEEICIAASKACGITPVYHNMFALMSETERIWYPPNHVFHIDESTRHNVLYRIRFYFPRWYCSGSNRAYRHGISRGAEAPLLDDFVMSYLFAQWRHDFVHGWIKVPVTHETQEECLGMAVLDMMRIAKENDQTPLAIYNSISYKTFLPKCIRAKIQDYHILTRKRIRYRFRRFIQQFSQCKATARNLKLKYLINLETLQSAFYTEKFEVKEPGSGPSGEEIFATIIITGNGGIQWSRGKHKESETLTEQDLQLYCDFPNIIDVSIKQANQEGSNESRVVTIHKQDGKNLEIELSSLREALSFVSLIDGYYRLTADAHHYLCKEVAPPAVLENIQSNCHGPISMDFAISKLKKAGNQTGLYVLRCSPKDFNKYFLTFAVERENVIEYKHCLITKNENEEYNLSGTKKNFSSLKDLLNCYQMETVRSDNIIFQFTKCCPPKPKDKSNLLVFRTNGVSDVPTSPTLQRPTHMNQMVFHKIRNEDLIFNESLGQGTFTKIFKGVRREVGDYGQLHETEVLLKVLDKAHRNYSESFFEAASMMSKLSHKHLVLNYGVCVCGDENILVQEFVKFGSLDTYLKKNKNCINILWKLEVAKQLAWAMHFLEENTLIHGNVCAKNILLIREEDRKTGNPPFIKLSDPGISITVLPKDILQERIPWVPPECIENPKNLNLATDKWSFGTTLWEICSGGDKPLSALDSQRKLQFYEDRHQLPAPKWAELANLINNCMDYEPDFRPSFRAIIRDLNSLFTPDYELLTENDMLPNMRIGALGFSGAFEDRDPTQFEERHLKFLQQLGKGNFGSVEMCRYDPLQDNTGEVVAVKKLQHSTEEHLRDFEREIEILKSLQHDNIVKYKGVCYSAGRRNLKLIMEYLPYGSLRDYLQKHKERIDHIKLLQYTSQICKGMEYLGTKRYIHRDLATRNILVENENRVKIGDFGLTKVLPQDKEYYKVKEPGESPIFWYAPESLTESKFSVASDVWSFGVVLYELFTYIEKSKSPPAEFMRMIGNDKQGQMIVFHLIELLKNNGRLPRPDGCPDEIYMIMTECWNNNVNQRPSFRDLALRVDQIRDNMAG
The target in series [3] is Acetyl-CoA carboxylase 1 (Homo sapiens) (UniProt Q13085). In words: Inhibition of ACC1 (unknown origin).
Another series relates to A-375. Description: Cytotoxicity against human A375 cells assessed as reduction in cell viability at 32 uM incubated for 72 hrs by CCK8 assay. The note with it: a-375, 72 h. Format: cell-based. On the technique in general: Formazan colour is commonly taken as a measure of viable cells.
The next series concerns HEK293. Description: Cytotoxicity against human HEK293 cells assessed as reduction in cell viability at 32 uM incubated for 72 hrs by CCK8 assay. The series is classed as cell-based. The note with it: hek293, 72 h.
Series [4] concerns the target T2, Tyrosine-protein phosphatase non-receptor type 1 (Homo sapiens, UniProt P18031).
T2 sequence (P18031 whole entry): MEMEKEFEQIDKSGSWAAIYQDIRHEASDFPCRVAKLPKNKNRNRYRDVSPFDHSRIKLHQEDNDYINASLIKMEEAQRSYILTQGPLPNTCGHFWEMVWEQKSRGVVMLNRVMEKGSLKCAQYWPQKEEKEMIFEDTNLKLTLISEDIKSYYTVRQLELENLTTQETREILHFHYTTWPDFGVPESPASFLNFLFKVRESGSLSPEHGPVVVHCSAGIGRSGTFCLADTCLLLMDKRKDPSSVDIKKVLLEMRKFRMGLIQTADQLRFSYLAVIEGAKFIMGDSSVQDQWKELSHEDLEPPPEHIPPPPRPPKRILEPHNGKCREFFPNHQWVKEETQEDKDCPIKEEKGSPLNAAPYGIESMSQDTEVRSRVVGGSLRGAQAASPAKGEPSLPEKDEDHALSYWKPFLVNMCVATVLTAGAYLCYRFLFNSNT
Description: Inhibition of PTP1B (unknown origin) using pNPP as substrate incubated for 30 mins.

A further series concerns the target T3, ATP-citrate synthase (Homo sapiens, UniProt P53396).
T3 sequence (P53396 whole entry): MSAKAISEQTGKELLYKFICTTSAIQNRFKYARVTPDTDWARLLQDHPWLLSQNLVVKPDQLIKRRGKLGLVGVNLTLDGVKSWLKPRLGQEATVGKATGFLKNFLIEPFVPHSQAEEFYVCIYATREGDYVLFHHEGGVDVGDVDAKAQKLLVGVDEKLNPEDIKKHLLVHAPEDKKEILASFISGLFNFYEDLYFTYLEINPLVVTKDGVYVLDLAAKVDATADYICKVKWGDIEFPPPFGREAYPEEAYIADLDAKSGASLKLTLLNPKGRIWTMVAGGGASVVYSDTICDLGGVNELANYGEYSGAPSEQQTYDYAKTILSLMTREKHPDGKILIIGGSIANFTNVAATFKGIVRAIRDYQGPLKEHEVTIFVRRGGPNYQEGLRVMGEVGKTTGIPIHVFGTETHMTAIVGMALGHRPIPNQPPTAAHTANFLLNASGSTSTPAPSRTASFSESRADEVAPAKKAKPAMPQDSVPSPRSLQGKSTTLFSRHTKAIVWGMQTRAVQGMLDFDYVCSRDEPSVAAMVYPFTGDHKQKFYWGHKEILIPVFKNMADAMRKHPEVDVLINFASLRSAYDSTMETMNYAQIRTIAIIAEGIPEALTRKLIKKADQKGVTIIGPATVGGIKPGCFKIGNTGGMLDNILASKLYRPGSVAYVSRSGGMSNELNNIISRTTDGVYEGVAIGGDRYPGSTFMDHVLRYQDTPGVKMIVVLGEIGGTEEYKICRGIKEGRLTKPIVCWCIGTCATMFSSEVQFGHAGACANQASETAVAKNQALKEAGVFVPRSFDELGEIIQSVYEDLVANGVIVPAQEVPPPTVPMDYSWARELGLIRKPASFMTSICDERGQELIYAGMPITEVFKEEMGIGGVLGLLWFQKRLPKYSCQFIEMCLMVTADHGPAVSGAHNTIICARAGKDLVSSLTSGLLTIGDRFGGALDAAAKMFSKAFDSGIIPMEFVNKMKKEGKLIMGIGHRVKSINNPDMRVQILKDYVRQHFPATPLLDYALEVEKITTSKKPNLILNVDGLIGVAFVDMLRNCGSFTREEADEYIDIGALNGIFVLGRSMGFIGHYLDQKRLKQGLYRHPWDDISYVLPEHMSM
Description: Inhibition of ACL (unknown origin).

In series [5] the target is Tyrosine-protein phosphatase non-receptor type 6 (Homo sapiens, UniProt P29350). In words: Inhibition of SHP1 (unknown origin).
Sequence of Tyrosine-protein phosphatase non-receptor type 6 (P29350 whole entry): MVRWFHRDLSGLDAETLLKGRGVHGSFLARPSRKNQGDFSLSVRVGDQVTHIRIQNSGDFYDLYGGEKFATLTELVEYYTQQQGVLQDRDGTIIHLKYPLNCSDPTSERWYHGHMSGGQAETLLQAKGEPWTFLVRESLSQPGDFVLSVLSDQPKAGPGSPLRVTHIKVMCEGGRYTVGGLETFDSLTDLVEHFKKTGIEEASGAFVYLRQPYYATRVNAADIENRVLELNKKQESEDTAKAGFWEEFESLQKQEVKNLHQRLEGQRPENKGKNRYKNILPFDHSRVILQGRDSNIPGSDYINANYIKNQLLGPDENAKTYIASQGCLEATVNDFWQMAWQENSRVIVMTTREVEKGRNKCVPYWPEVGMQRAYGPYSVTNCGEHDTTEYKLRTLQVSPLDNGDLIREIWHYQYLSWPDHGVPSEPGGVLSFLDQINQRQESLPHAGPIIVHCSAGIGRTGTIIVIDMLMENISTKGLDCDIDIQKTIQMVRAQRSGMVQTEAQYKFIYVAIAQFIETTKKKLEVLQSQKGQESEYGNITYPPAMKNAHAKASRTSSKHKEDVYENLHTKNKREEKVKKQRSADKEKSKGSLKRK

Active and inactive are the calls of the source. No cut-off for these calls is given here.

For `CC1=CCC[C@H]2[C@](C)(Cc3cc(O)cc4c3oc(=O)n4C)[C@@H](C)CC[C@]12C`, the inhibition entry in series [1], in series [2] and in series [3] was “inactive” throughout. The Activity result with A-375 and in the series with HEK293 was “Non-Toxic” each time.

As for `CC1=CCC[C@H]2[C@](C)(Cc3cc(NC(=O)CC(C)C)ccc3O)[C@@H](C)CC[C@]12C`, the inhibition result in series [1], in series [2] and in series [3] was “inactive” throughout. For the same molecule, the Activity entry in the series on A-375 is reported as “Non-Toxic”.

Regarding `CC(=O)Nc1ccc(O)c(C[C@]2(C)[C@@H](C)CC[C@]3(C)C(C)=CCC[C@@H]23)c1`, the inhibition result in series [1], in series [2] and in series [3] was “inactive” each time. In addition, the Activity entry in the series with A-375 and in the series with HEK293 was “Non-Toxic” in each case.

As for `CC1=CCC[C@H]2[C@](C)(Cc3cc(O)cc4nc(C)oc34)[C@@H](C)CC[C@]12C`, the inhibition entry in series [1], in series [2] and in series [3] was “inactive” each time. The Activity result in the series on A-375 and with HEK293 was “Non-Toxic” in each case.

Take `C=C1CCC[C@H]2[C@](C)(Cc3cc(O)cc4nc5n(c34)CCC5)[C@@H](C)CC[C@]12C`: the IC50 (in series [4]; on ATP-citrate synthase; in series [5]) was 2.8 to 27 µM in each case. The inhibition result in series [1], in series [2] and in series [3] was “inactive” throughout. Besides, in the series on A-375, the Activity result is reported as “Non-Toxic”.

Turning to `CC1=CCC[C@H]2[C@](C)(Cc3cc(O)cc4[nH]c(=O)oc34)[C@@H](C)CC[C@]12C`, the concentration for half-maximal inhibition (IC50) (in series [4]; against ATP-citrate synthase; in series [5]) was 2.8 to 27 µM in each case. Besides, the inhibition entry in series [1], in series [2] and in series [3] was “inactive” in each case. Moreover, the Activity entry with A-375 and with HEK293 was “Non-Toxic” throughout.

In the case of `CC1=CCC[C@H]2[C@](C)(Cc3cc(-n4cccc4C=O)ccc3O)[C@@H](C)CC[C@]12C`, the inhibition result in series [1], in series [2] and in series [3] was “inactive” throughout. For the same molecule, the Activity result in the series with A-375 and in the series on HEK293 was “Non-Toxic” throughout.

Turning to `C=C1CCC[C@H]2[C@](C)(Cc3cc(O)cc4nc(C)oc34)[C@@H](C)CC[C@]12C`, the inhibition result in series [1], in series [2] and in series [3] was “inactive” throughout. The Activity result in the series on A-375 and with HEK293 was “Non-Toxic” each time.

Regarding `CC1=CCC[C@H]2[C@](C)(Cc3cc(O)cc4ncoc34)[C@@H](C)CC[C@]12C`, the half-maximal inhibitory concentration (IC50) (in series [4]; against ATP-citrate synthase; in series [5]) was 2.8 to 27 µM throughout. In addition, the inhibition entry in series [1], in series [2] and in series [3] was “inactive” each time. Further, the Activity result in the series with A-375 and in the series on HEK293 was “Non-Toxic” throughout.

For `CC1=CCC[C@H]2[C@](C)(Cc3cc(N4CCCC4=O)ccc3O)[C@@H](C)CC[C@]12C`, the inhibition entry in series [1], in series [2] and in series [3] was “inactive” each time. The Activity result in the series with A-375 and in the series with HEK293 was “Non-Toxic” in each case.

In the case of `CC1=CCC[C@H]2[C@](C)(Cc3cc(O)cc4nc5n(c34)CCC5)[C@@H](C)CC[C@]12C`, the IC50 (in series [4]; against ATP-citrate synthase; in series [5]) was 2.8 to 27 µM each time. Moreover, the inhibition result in series [1], in series [2] and in series [3] was “inactive” in each case. Also, in the series with A-375, the Activity entry is reported as “Non-Toxic”.

As usually defined, the IC50 is the concentration that gives 50% inhibition. Read a high IC50 as weaker potency in that assay.

These data come from ChEMBL document CHEMBL4414588, “Cinerols, Nitrogenous Meroterpenoids from the Marine Sponge Dysidea cinerea” (J Nat Prod, 2019).
